The Deep4Chem optical property database
One block for each compound: values may come before it.

Experiment: solvent given as SMILES

Compound: CCCCOc1ccc(-c2oc3c(-c4ccc(OCCCC)cc4)c4n(c3c2-c2ccc(OCCCC)cc2)[B-](F)(F)[N+]2=Cc3c(-c5ccc(OCCCC)cc5)c5oc(-c6ccc(OCCCC)cc6)c(-c6ccc(OCCCC)cc6)c5n3[B-](F)(F)[N+]2=C4)cc1
fluorescence lifetime (in ClCCl): 2.56 ns

Compound: Cc1ccc2c(c1)B(c1c(C(C)C)cc(C(C)C)cc1C(C)C)c1cc(C)cc3c1N2c1ccc(C)cc1B3c1c(C(C)C)cc(C(C)C)cc1C(C)C
fluorescence lifetime (in Cc1ccccc1-c1cccc(Oc2cc3c4c(c2)Oc2cc(-c5ccccc5C)ccc2B4c2ccc(-c4ccccc4C)cc2O3)c1): 6.01 ns

Compound: CC1=CC(C)=[N+]2C1=Cc1c(C)cc(C)n1[B-]2(F)F
fluorescence lifetime (in CCCCCC): 5.85 ns
fluorescence lifetime (in CO): 5.95 ns
fluorescence lifetime (in ClCCl): 5.73 ns

Compound: CC1(C)c2ccccc2N(c2cc[n+]3c(c2)-c2ccccc2O[B-]3(F)F)c2ccccc21
fluorescence lifetime (in O=P(c1ccccc1)(c1ccccc1)c1ccccc1Oc1ccccc1P(=O)(c1ccccc1)c1ccccc1): 6.2 ns

Compound: Cc1cc(-c2ccc(-c3ccccc3)cc2)nc(-c2ccc(-n3c4ccccc4c4ccccc43)cc2)n1
fluorescence lifetime (in C1CCOC1): 3.36 ns
fluorescence lifetime (in CN(C)C=O): 12.2 ns
fluorescence lifetime (in Cc1ccccc1): 1.15 ns
fluorescence lifetime (in ClC(Cl)Cl): 3.19 ns

Compound: O=S(=O)(c1ccc(-c2ccc(-n3c4ccccc4c4ccccc43)cc2)cc1)c1ccc(-c2ccc(-n3c4ccccc4c4ccccc43)cc2)cc1
fluorescence lifetime (in Cc1ccccc1): 2.55 ns

Compound: CN(C)c1ccc(/C=C/c2ccc(-c3ccc(/C=C/c4ccc(N(C)C)cc4)s3)s2)cc1
fluorescence lifetime (in C1CCOC1): 1.08 ns
fluorescence lifetime (in CC#N): 1.12 ns
fluorescence lifetime (in CC(C)=O): 1.11 ns
fluorescence lifetime (in CN(C)C=O): 1.15 ns
fluorescence lifetime (in Cc1ccccc1): 1.03 ns

Compound: Cc1nc(-c2ccc(-n3c4ccccc4c4ccccc43)cc2)cc(-c2ccc(-n3c4ccccc4c4ccccc43)cc2)n1
fluorescence lifetime (in C1CCOC1): 4.1 ns
fluorescence lifetime (in CN(C)C=O): 6.95 ns
fluorescence lifetime (in Cc1ccccc1): 2.05 ns
fluorescence lifetime (in ClC(Cl)Cl): 3.86 ns

Compound: CC1=[O+][B-]2(OC(=O)C(=O)O2)OC(c2c3ccccc3cc3ccccc23)=C1
fluorescence lifetime (in CC#N): 2.1 ns
fluorescence lifetime (in ClC(Cl)(Cl)Cl): 1.2 ns

Compound: Cc1ccc(C2=C3C=CC(/C=C/c4ccccc4)=[N+]3[B-](F)(F)n3c(Cl)ccc32)cc1
fluorescence lifetime (in C1CCCCC1): 3.64 ns
fluorescence lifetime (in C1CCOC1): 3.45 ns
fluorescence lifetime (in C1COCCO1): 3.68 ns
fluorescence lifetime (in CCOC(C)=O): 3.43 ns
fluorescence lifetime (in CO): 3.16 ns
fluorescence lifetime (in Cc1ccccc1): 3.68 ns
fluorescence lifetime (in ClC(Cl)Cl): 3.98 ns

Compound: C(#Cc1ccc(C#Cc2ccc(C#Cc3ccccc3)cc2)cc1)c1ccccc1
fluorescence lifetime (in ClC(Cl)Cl): 1.7 ns

Compound: O=c1cccc2n1C[C@@H]1CNC[C@H]2C1
fluorescence lifetime (in CC#N): 0.289 ns

Compound: CC1(C)C(/C=C/C2=C(Oc3ccc(CCN=C=S)cc3I)C(=C/C=C3/N(CCCS(=O)(=O)[O-])c4ccccc4C3(C)C)/CCC2)=[N+](CCCS(=O)(=O)[O-])c2ccccc21
fluorescence lifetime (in CO): 0.947 ns

Compound: CCOC(=O)CN(CC(=O)OCC)c1ccc(-c2cc(-c3ccccn3)nc(-c3ccccn3)c2)cc1
fluorescence lifetime (in CC#N): 5.21 ns
fluorescence lifetime (in CCOC(C)=O): 3.84 ns
fluorescence lifetime (in CN(C)C=O): 6.02 ns
fluorescence lifetime (in CS(C)=O): 6.76 ns
fluorescence lifetime (in c1ccccc1): 1.63 ns

Compound: COc1ccc(/N=N/c2c(O)c3ccccc3n(C)c2=O)c(S(=O)(=O)O)c1
fluorescence lifetime (in CS(C)=O): 0.04 ns

Compound: CC1=[N+]2C(=C(c3ccc(N(c4ccccc4)c4ccccc4)cc3)c3ccc(C)n3[B-]2(F)F)C=C1c1cc2n(c1)[B-](F)(F)[N+]1=CC=CC1=C2c1c(C)cc(C)cc1C
fluorescence lifetime (in C1CCCCC1): 2.6 ns
fluorescence lifetime (in CCOC(C)=O): 0.72 ns

Compound: N#Cc1c[nH]c2ccccc12
fluorescence lifetime (in C1CCOC1): 3.1 ns
fluorescence lifetime (in C1COCCO1): 3 ns
fluorescence lifetime (in CC#N): 1.8 ns
fluorescence lifetime (in CS(C)=O): 0.2 ns

Compound: CC1=C(c2ccccc2)C(C)=[N+]2C1=C(c1c(-c3ccccn3)nc3ccccn13)c1c(C)cc(C)n1[B-]2(F)F
fluorescence lifetime (in ClCCl): 6.2 ns

Compound: N#Cc1ccc(-n2c(-c3ccc(-c4ccc(N(c5ccccc5)c5ccccc5)cc4)s3)nc3c4ccccc4c4ccccc4c32)c2ccccc12
fluorescence lifetime (in ClCCl): 5.4 ns

Compound: N#Cc1ccc(/C=C/c2ccc3ccc4cccc5ccc2c3c45)cc1
fluorescence lifetime (in C1CCOC1): 1.82 ns
fluorescence lifetime (in CC1CCCCC1): 2.05 ns
fluorescence lifetime (in CC#N): 1.68 ns
fluorescence lifetime (in CO): 1.6 ns
fluorescence lifetime (in Cc1ccccc1): 1.76 ns
fluorescence lifetime (in ClC(Cl)Cl): 1.53 ns

Compound: CCN(CC)c1ccc2c(-c3ccccc3C(=O)O)c3c([o+]c2c1)/C(=C/c1ccc(N2CCCC2)s1)CCC3
fluorescence lifetime (in ClCCl): 0.16 ns

Compound: COc1nc(Cl)nc(Nc2ccc3c4c(cccc24)C(=O)c2ccccc2-3)n1
fluorescence lifetime (in CC#N): 8.4 ns
fluorescence lifetime (in CC(C)=O): 7.7 ns
fluorescence lifetime (in CC(C)O): 8 ns
fluorescence lifetime (in CCCCOCCCC): 0.9 ns
fluorescence lifetime (in CCOC(C)=O): 3.9 ns
fluorescence lifetime (in CCOCC): 1.6 ns
fluorescence lifetime (in CO): 7.7 ns
fluorescence lifetime (in Cc1ccccc1): 2.8 ns
fluorescence lifetime (in Clc1ccccc1): 5.4 ns
fluorescence lifetime (in N#Cc1ccccc1): 7.8 ns
fluorescence lifetime (in O=C1CCCCC1): 6.3 ns

Compound: Cc1ccc(C2=C3C=CC4=[N+]3[P-](=O)(=O)n3c2ccc3-c2ccc([nH]2)/C(c2ccc(C)cc2)=c2/cc/c(o2)=C(\c2ccc(C)cc2)c2ccc4[nH]2)cc1
fluorescence lifetime (in ClC(Cl)Cl): 4.3 ns

Compound: CCn1c2ccccc2c2cc(C#Cc3cc(C#Cc4ccc5c(c4)c4ccccc4n5CC)ncn3)ccc21
fluorescence lifetime (in C1CCOC1): 2.32 ns

Compound: Cc1ccc(-c2ccc(-c3ccc(-c4ccc(-c5ccc(C)cc5)cc4)c(/C(=C(/c4ccccc4)c4cc(-c5ccc(-c6ccc(C)cc6)cc5)ccc4-c4ccc(-c5ccc(C)cc5)cc4)c4ccccc4)c3)cc2)cc1
fluorescence lifetime (in C1CCOC1): 8.5 ns

Compound: CCc1c(C)[nH]c(C2=[N+]3C(=C(C)c4c(C)c(CC)c(C)n4[B-]3(F)F)c3ccccc32)c1C
fluorescence lifetime (in ClCCl): 6.21 ns

Compound: COc1ccc(-c2c3ccc([nH]3)c3nc(c(-c4ccc([N+](=O)[O-])cc4)c4ccc([nH]4)c4ccc([nH]4)c(-c4ccc(OC)cc4)c4ccc2o4)C=C3)cc1
fluorescence lifetime (in C1CCOC1): 0.66 ns
fluorescence lifetime (in Cc1ccccc1): 4.33 ns
fluorescence lifetime (in c1ccccc1): 4.2 ns

Compound: CCCCCCC(CCCCCC)n1c(=O)c2c3ccc4cccc5c6cccc7ccc(c2c1=O)c(c76)c3c45
fluorescence lifetime (in C1CCCCC1): 10.5 ns
fluorescence lifetime (in CC#N): 7.5 ns
fluorescence lifetime (in CC(C)=O): 7.8 ns
fluorescence lifetime (in CCCCCC): 9.5 ns
fluorescence lifetime (in CCO): 6.5 ns
fluorescence lifetime (in CCOCC): 9.6 ns
fluorescence lifetime (in CS(C)=O): 7.7 ns
fluorescence lifetime (in Cc1ccccc1): 9.2 ns
fluorescence lifetime (in ClC(Cl)(Cl)Cl): 8.7 ns
fluorescence lifetime (in ClC(Cl)Cl): 6.7 ns

Compound: Cc1ccc2c(c1)C(c1ccccc1)(c1ccccc1)c1cc(C)ccc1N2c1cc(C(C)C)c(B2c3ccccc3Sc3ccccc32)c(C(C)C)c1
fluorescence lifetime (in Cc1ccccc1): 47 ns
fluorescence lifetime (in O=P(c1ccccc1)(c1ccccc1)c1ccc2oc3ccc(P(=O)(c4ccccc4)c4ccccc4)cc3c2c1): 21 ns

Compound: F[B-]1(F)OC(c2ccc(C(F)(F)F)cc2)=Cc2cc(Cl)nc[n+]21
fluorescence lifetime (in C1CCOC1): 0.13 ns
fluorescence lifetime (in Cc1ccccc1): 0.21 ns

Compound: c1ccc(-c2nc(-c3ccccc3)c(-c3ccccc3)o2)cc1
fluorescence lifetime (in Cc1ccccc1): 1.27 ns

Compound: FC(F)(F)c1ccc(-c2nnc(-c3cc(-n4c5ccccc5c5ccccc54)c(-n4c5ccccc5c5ccccc54)cc3-c3nnc(-c4ccc(C(F)(F)F)cc4)o3)o2)cc1
fluorescence lifetime (in Cc1ccccc1): 19.1 ns

Compound: FC(F)(F)C(F)(F)C(F)(F)C1=NC2=C(c3ccccc3)C=C3c4cc(-c5ccccc5)c5nc(C(F)(F)C(F)(F)C(F)(F)F)nc6c(-c7ccccc7)cc(c4c56)=C4C=C(c5ccccc5)C(=N1)C2C34 (stereo not given)
fluorescence lifetime (in C1CCOC1): 3.2 ns

Compound: CC(C)c1cc(C(C)C)c(B2c3cc(N4c5ccccc5C(C)(C)c5ccccc54)ccc3N(c3ccccc3)c3ccc(N4c5ccccc5C(C)(C)c5ccccc54)cc32)c(C(C)C)c1
fluorescence lifetime (in c1cc(-c2cccc(-n3c4ccccc4c4ccccc43)c2)cc(-n2c3ccccc3c3ccccc32)c1): 17 ns

Compound: CCOC(=O)CCCCCn1c2ccc(N)cc2c(=O)c2cc3c(cc21)c(=O)c1cc(N)ccc1n3CCCCCC(=O)OCC
fluorescence lifetime (in ClCCl): 15.6 ns

Compound: COc1ccc(C#Cc2c3ccccc3c3n2[B-](F)(F)[N+]2=C(C)C=C(C)C2=C3)cc1
fluorescence lifetime (in CCCCCC): 5.2 ns
fluorescence lifetime (in CCCCCCCCO): 4.65 ns
fluorescence lifetime (in CCOC(C)=O): 4.93 ns
fluorescence lifetime (in CN(C)C=O): 4.41 ns

More lines, now with the values ahead:

fluorescence lifetime (in CC#N): 6.1 ns
Compound: Cc1cc2c(ccc3c[n+](C)c(C)cc32)c[n+]1C

fluorescence lifetime (in C1CCOC1): 8.38 ns
fluorescence lifetime (in ClC(Cl)Cl): 8.65 ns
fluorescence lifetime (in ClCCl): 8.38 ns
Compound: O=C1NC(=O)c2ccc(N3CCOCC3)c3cccc1c23

fluorescence lifetime (in CCCCCC): 6.21 ns
fluorescence lifetime (in CO): 6.34 ns
fluorescence lifetime (in ClCCl): 5.89 ns
Compound: CC1=CC(C)=[N+]2C1=Cc1cccn1[B-]2(F)F

fluorescence lifetime (in ClCCl): 2.5 ns
Compound: N#Cc1ccc(C2=Cc3cc4ccccc4cc3P2(=O)c2ccccc2)cc1 (stereo not given)

fluorescence lifetime (in ClCCl): 7.18 ns
Compound: C1=CC2=CC=CC3C=c4c(cc5cccc6cccc4c65)C(=C1)C23 (stereo not given)

fluorescence lifetime (in ClCCl): 4.28 ns
Compound: CCN(CC)c1ccc2c(c1)oc(=O)c1c(C)nc3c(c(-c4ccccc4)nn3C)c12

fluorescence lifetime (in C1CCCCC1): 0.02 ns
fluorescence lifetime (in C1COCCO1): 0.02 ns
fluorescence lifetime (in CC#N): 0.02 ns
fluorescence lifetime (in CCO): 2.3 ns
fluorescence lifetime (in OCC(F)(F)F): 2.8 ns
Compound: Cc1cc2c(o1)c(C)cc1ccc(=O)oc12

fluorescence lifetime (in O): 3.49 ns
Compound: CC1(C)C(=O)C=Cc2ccc(N)cc21

fluorescence lifetime (in ClCCl): 1.49 ns
Compound: COc1ccc(C#CC2=C3CCc4ccccc4C3=[O+][B-](F)(F)O2)cc1

fluorescence lifetime (in ClC(Cl)Cl): 7.96 ns
Compound: CN(C)/C=N\c1ccc2c3c(cccc13)C(=O)c1ccccc1-2

fluorescence lifetime (in ClCCl): 1.35 ns
Compound: COc1cc(C(=O)c2c(C)c3ccc4cccc5c6cccc7ccc2c(c76)c3c45)cc(OC)c1OC

fluorescence lifetime (in C1CCCCC1): 0.7 ns
fluorescence lifetime (in ClC(Cl)Cl): 0.7 ns
Compound: CN(C)c1ccc(/C=C/c2ccc(-c3nc(C#N)c(C#N)n3C)cc2)cc1

fluorescence lifetime (in ClCCl): 4.76 ns
Compound: [O-][n+]1c(-c2ccccc2)cc(N2CCOCC2)nc1/C=C/c1ccccc1

fluorescence lifetime (in ClC(Cl)Cl): 0.25 ns
fluorescence lifetime (in ClCCl): 0.35 ns
Compound: O=[N+]([O-])c1ccc(C#Cc2ccc3ccccc3c2)cc1

fluorescence lifetime (in O): 15 ns
Compound: O=S(=O)([O-])c1ccc([O-])c2ccccc12

fluorescence lifetime (in CC#N): 0.52 ns
Compound: c1cc2c3c(cccc3c1)C(N1CCOCCNCCOCCOCC1)=N2

fluorescence lifetime (in C1CCOC1): 1.72 ns
Compound: C(=C\c1cc2ccccc2c2ccccc12)/c1cc2ccccc2c2ccccc12

fluorescence lifetime (in C1COCCO1): 10.3 ns
fluorescence lifetime (in CCOC(C)=O): 6.6 ns
Compound: Clc1nc(Nc2ccccc2)nc(Nc2ccc3cc4ccccc4cc3c2)n1

fluorescence lifetime (in CC#N): 4.63 ns
fluorescence lifetime (in CO): 1.69 ns
fluorescence lifetime (in O): 1.74 ns
Compound: Nc1cccc2cn[nH]c12

fluorescence lifetime (in CC#N): 0.89 ns
fluorescence lifetime (in CO): 0.86 ns
Compound: CC(C)CCCN1c2ccccc2CCc2ccccc21

fluorescence lifetime (in CC#N): 3.4 ns
Compound: N#C/C(=C\c1ccc(C#N)cc1)c1nc(-c2ccccc2)cs1

fluorescence lifetime (in CCO): 15.2 ns
Compound: O=C1c2cccc3cc4ccccc4c(c23)C(=O)N1Cc1ccccn1
